Values quoted from earlier work as cited in patent US20070141140A1, “Semi-solid formulations for immediate release intended for the oral administration of drugs” (PHARMACIA ITALISA S.P.A., priority 2003, published 2007).

Conditions: for weight concentration in the semi-solid matrix above which dissolution velocity drops significantly: polyethylene glycol or Gelucire 44/14 matrix

SMILES | active ingredient released (PEG 1500 matrix, 10% by weight Triamterene, 2 or 5% polysorbate 80 (Tween 80), in an hour) | weight concentration in the semi-solid matrix above which dissolution velocity drops significantly
Nc1nc(N)c2nc(-c3ccccc3)c(N)nc2n1 [Triamterene] | at least 80% | exceeding 5%
CN1C(=O)C(O)N=C(c2ccccc2)c2cc(Cl)ccc21 (stereo not drawn) [temazepam, Temazepam] | – | > 15%
